Data: PubChem BioAssay AID602267 (Broad Institute, 2012)
Activity calls are given as the source filed them.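 The calls were made as follows: active = signal falls with dose and the fitted half-maximal concentration is at or below twice the top valid tested dose; inconclusive = flat curve with 30 to 70% inhibition, or poor fit; inactive = wrong direction, flat within 30%, or potency beyond limit.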

Target: Golgi-associated PDZ and coiled-coil motif-containing protein (Homo sapiens) (UniProt Q9HD26)
Assay: CAL PDZ domain peptide-binding inhibitors, dose response, biochemical, fluorescence polarization, untagged CAL PDZ, cherry-pick (AID 602267)
Conditions: purified CAL PDZ, TMR-peptide fluorescence polarization, 1 h

COCCN(Cc1nc(C(c2ccccc2)c2ccccc2)no1)C(C)C
activity change, negative = inhibition (at 50 µM (top of the series)): inactive

Cc1nc2ccc(Br)cn2c1C(=O)N/N=C\c1ccc(C(C)C)cc1
activity change, negative = inhibition (at 50 µM (top of the series)): inactive

O=[N+]([O-])c1ccccc1S(=O)(=O)NC1CCCCCCC1
activity change, negative = inhibition (at 50 µM (top of the series)): inactive

Cc1ccc2nc(CSc3nnc(-c4ccncc4)n3C)cc(=O)n2c1
activity change, negative = inhibition (at 50 µM (top of the series)): inactive

CN(c1nc(-c2ccc(Br)cc2)cs1)C1CCS(=O)(=O)C1 (stereo not given)
activity change, negative = inhibition (at 50 µM (top of the series)): inactive

CC(=O)NC1C(=O)N(CCN2CCOCC2)c2ccc(Cl)cc21 (stereo not given)
activity change, negative = inhibition (at 50 µM (top of the series)): inactive

CCOC(=O)C1(Cc2cccc(Cl)c2)CCCN(C(=O)c2cccc(C)n2)C1 (stereo not given)
activity change, negative = inhibition (at 16 µM (top of the series)): inactive

Cc1nn2c3ccccc3nc2c2ccccc12
activity change, negative = inhibition (at 50 µM (top of the series)): inactive

O=S(=O)(c1cccc2ccccc12)N1CCCCC1
activity change, negative = inhibition (at 50 µM (top of the series)): inactive

O=C(c1ccccc1)C(CCc1ccccn1)CCc1ccccn1
activity change, negative = inhibition (at 50 µM (top of the series)): inactive

COC(=O)C(C(=O)OC)c1ccc(N)cc1
activity change, negative = inhibition (at 50 µM (top of the series)): inactive

O=C(c1ccc(F)cc1Cl)N1CCC2(CC1)OCCO2
activity change, negative = inhibition (at 50 µM (top of the series)): inactive

CSc1cccc(NC(=O)N2CCCC(CNS(=O)(=O)Cc3ccccc3)C2)c1 (stereo not given)
activity change, negative = inhibition (at 50 µM (top of the series)): inactive

O=C(OCC(=O)N1CCOCC1)c1ccc[nH]c1=O
activity change, negative = inhibition (at 16 µM (top of the series)): inactive

COC(=O)CN1C(=O)N/C(=C/c2cc(Cl)c(OC)c(OC)c2)C1=O
activity change, negative = inhibition (at 50 µM (top of the series)): inactive

CCOC(=O)/C(N=Nc1ccc2c(c1)OCO2)=C(\C)O
activity change, negative = inhibition (at 50 µM (top of the series)): inactive

O=C(NCCN1C(=O)S/C(=C\c2ccc(Cl)c(Cl)c2)C1=O)C1COc2ccccc2O1 (stereo not given)
activity change, negative = inhibition (at 50 µM (top of the series)): inactive

C(=N\N1CCOCC1)/c1nc(-c2ccccc2)n2ccccc12
activity change, negative = inhibition (at 50 µM (top of the series)): inactive

O=C1OC(c2ccccc2)(c2ccccc2)c2ccccc21
activity change, negative = inhibition (at 50 µM (top of the series)): inactive

Cc1ccccc1-n1c(C)c(C#N)c(=O)c(-[n+]2ccccc2)c1[S-]
activity change, negative = inhibition (at 50 µM (top of the series)): inactive

CCc1nc(SCC(=O)c2ccccc2)c2c(=O)n(C)c(=O)n(C)c2n1
activity change, negative = inhibition (at 50 µM (top of the series)): inactive

CCN1C(=O)CS/C1=N\S(=O)(=O)c1ccc(Cl)cc1
activity change, negative = inhibition (at 50 µM (top of the series)): inactive

COC(=O)c1cccc([N+](=O)[O-])c1CS(=O)(=O)c1ccc(C)cc1
activity change, negative = inhibition (at 50 µM (top of the series)): inactive

Cc1ccc(-c2nc3ccccc3c(=O)o2)cc1
activity change, negative = inhibition (at 50 µM (top of the series)): inactive

CC(C)OCCCNC(=O)C1CC(=O)N(CCc2ccc(F)cc2)C1 (stereo not given)
activity change, negative = inhibition (at 50 µM (top of the series)): inactive

O=C(NC12CC3CC(CC(C3)C1)C2)c1ccco1
activity change, negative = inhibition (at 50 µM (top of the series)): inactive

CNC(=O)c1nnn(Cc2ccccc2)c1NC(C)=O
activity change, negative = inhibition (at 50 µM (top of the series)): inactive

CCOC(=O)c1ccc(NC(=S)N2CCCC(C(=O)N3CCCC3)C2)cc1 (stereo not given)
activity change, negative = inhibition (at 50 µM (top of the series)): inactive

COc1ccc(OC)c(S(=O)(=O)NCCCn2ccnc2)c1
activity change, negative = inhibition (at 50 µM (top of the series)): inactive

O=C(NCc1ccccc1)c1cc2ccc(O)cc2oc1=O
activity change, negative = inhibition (at 50 µM (top of the series)): inactive

CCCCN1CC(O)=C(c2nc(-c3ccc(Cl)cc3)cs2)C1=N
activity change, negative = inhibition (at 50 µM (top of the series)): inactive

O=C(O)c1[nH]c2ccccc2c1C(c1ccccc1)c1c(C(=O)O)[nH]c2ccccc12
activity change, negative = inhibition (at 50 µM (top of the series)): inactive

CCOc1ccc(NC(=O)c2nsc(Cl)c2Cl)cc1
activity change, negative = inhibition (at 50 µM (top of the series)): inactive

COc1ccc(NC(=O)c2ccc3c(c2)NC(=O)CO3)cc1OC
activity change, negative = inhibition (at 50 µM (top of the series)): inactive

CCOC(=O)/C=C/C(=O)OCC(=O)Nc1ccc([N+](=O)[O-])cc1
activity change, negative = inhibition (at 50 µM (top of the series)): inactive

O=C(CN1C(=O)NC2(CCCC2)C1=O)Nc1ccc(F)c(F)c1F
activity change, negative = inhibition (at 50 µM (top of the series)): inactive

Cc1cc(C)c(C(=O)N2CCC3(CC2)OCCO3)c(C)c1
activity change, negative = inhibition (at 50 µM (top of the series)): inactive

O=C(NCCCn1ccnc1)c1ccccc1F
activity change, negative = inhibition (at 50 µM (top of the series)): inactive

CC12CNCC(C)(CN(C3(O)C(=O)Nc4ccc(Br)cc43)C1)C2=O (stereo not given)
activity change, negative = inhibition (at 50 µM (top of the series)): inactive

CC1CCN(C(=O)COC(=O)c2cccs2)CC1
activity change, negative = inhibition (at 50 µM (top of the series)): inactive

CCOC(=O)c1nc(NCCc2ccccc2)sc1C
activity change, negative = inhibition (at 50 µM (top of the series)): inactive

O=C(NCCc1ccccc1)C1CCC(=O)N(CCCN2CCCC2=O)C1 (stereo not given)
activity change, negative = inhibition (at 50 µM (top of the series)): inactive

CCC1C(=O)NCCN1C(=O)CCc1nnc(CCc2ccc(OC)cc2)o1 (stereo not given)
activity change, negative = inhibition (at 50 µM (top of the series)): inactive

COc1ccc(CC(=O)NNC(=O)CCc2ccccc2)cc1OC
activity change, negative = inhibition (at 50 µM (top of the series)): inactive

O=C(c1ccccc1Cl)N(Cc1ccc(Cl)c(Cl)c1)N1C(=O)CCCC1=O
activity change, negative = inhibition (at 50 µM (top of the series)): inactive

COC(=O)CN1C(=O)C(O)=C(C(C)=O)C1c1ccc([N+](=O)[O-])cc1 (stereo not given)
activity change, negative = inhibition (at 50 µM (top of the series)): inactive

CCN1CCN(S(=O)(=O)c2ccc(OC)c3ccccc23)CC1
activity change, negative = inhibition (at 50 µM (top of the series)): inactive

Cc1ccc(SCC(=O)NCc2ccc(F)cc2)cc1
activity change, negative = inhibition (at 50 µM (top of the series)): inactive

COc1cc(Cl)c(CN2CCCC(CO)(Cc3cccc(Cl)c3)C2)cc1OC (stereo not given)
activity change, negative = inhibition (at 50 µM (top of the series)): inactive

O=C(O)CCCC(=O)N1N=C(c2ccccc2)CC1c1ccc2c(c1)OCO2 (stereo not given)
activity change, negative = inhibition (at 50 µM (top of the series)): inactive

CCOCCCNC(=S)N1CCN(c2nc(-c3ccccc3)cs2)CC1
activity change, negative = inhibition (at 50 µM (top of the series)): inactive

COc1ccc(/C=C/C(=O)Nc2ccc3nc4n(c(=O)c3c2)CCCC4)cc1OC
activity change, negative = inhibition (at 50 µM (top of the series)): inactive

COc1ccc(OC)c(NC(=O)CS(=O)(=O)Cc2ccccc2)c1
activity change, negative = inhibition (at 50 µM (top of the series)): inactive

COc1cc(OC)cc(C(=O)N[C@H](C(=O)Nc2nc3ccc(S(C)(=O)=O)cc3s2)C(C)C)c1
activity change, negative = inhibition (at 50 µM (top of the series)): inactive

COc1cc(NC(=O)c2cccs2)ccc1NC(=O)c1ccccc1Cl
activity change, negative = inhibition (at 50 µM (top of the series)): inactive

CC(=O)Nc1cc(NC(C)=O)cc(C(=O)OCC(=O)Nc2ccc(S(=O)(=O)NC3=NCCCCC3)cc2)c1
activity change, negative = inhibition (at 50 µM (top of the series)): inactive

CCCn1cnc2c(SCCc3ccccc3)nc(N)nc21
activity change, negative = inhibition (at 50 µM (top of the series)): inactive

CN(C)c1ccc(C=c2c3ccccc3n3c2cc(-c2ccccc2)[n+]3C)cc1
activity change, negative = inhibition (at 50 µM (top of the series)): inactive

Cc1cc(SCC(=O)OCC(=O)c2c(N)n(C)c(=O)n(C)c2=O)c(C)cc1Br
activity change, negative = inhibition (at 50 µM (top of the series)): inactive

CC(=O)Nc1sc2c(c1C(c1ccccn1)N1CCN(C)CC1)CCCC2 (stereo not given)
activity change, negative = inhibition (at 50 µM (top of the series)): inactive

O=P(O)(COc1ccccc1)COc1ccccc1
activity change, negative = inhibition (at 50 µM (top of the series)): inactive

O=C(N/N=C/c1ccc(OCc2ccccc2)cc1)c1ccc(O)cc1
activity change, negative = inhibition (at 50 µM (top of the series)): inactive

COc1ccccc1NC(=O)c1c([N+](=O)[O-])cnn1C
activity change, negative = inhibition (at 50 µM (top of the series)): inactive

O=C(NCc1ccccc1)C1CCCN(c2nc3ccsc3c(=O)s2)C1 (stereo not given)
activity change, negative = inhibition (at 50 µM (top of the series)): inactive

CN1CC(=O)N(CC(=O)Nc2ccc(Br)cc2F)C1=O
activity change, negative = inhibition (at 50 µM (top of the series)): inactive

O=C(NNC(=O)c1c(F)cccc1F)c1sccc1-n1cccc1
activity change, negative = inhibition (at 50 µM (top of the series)): inactive

CCOc1ccc(C(=O)NCC(=O)N2CCC(C)CC2)cc1OCC
activity change, negative = inhibition (at 50 µM (top of the series)): inactive

CCOC(=O)c1c(CN2CCOCC2)oc2ccc(OC(C)=O)cc12
activity change, negative = inhibition (at 50 µM (top of the series)): inactive

CC(C)(C)OC(=O)N[C@@H](Cc1c[nH]c2ccccc12)c1nnc(SCC(N)=O)o1
activity change, negative = inhibition (at 50 µM (top of the series)): inactive

COc1cccc(CN2CCN(C3CSCCSC3)CC2CCO)c1 (stereo not given)
activity change, negative = inhibition (at 50 µM (top of the series)): inactive

CCC(C)(C)NC(=O)CSc1nc(Cc2ccccc2)nc2ccccc12
activity change, negative = inhibition (at 50 µM (top of the series)): inactive

CCOc1ccc(N(CC(=O)N2CCN(Cc3ccccc3)CC2)S(C)(=O)=O)cc1
activity change, negative = inhibition (at 50 µM (top of the series)): inactive

Cc1cccc(CN2CCc3c([nH]c4ccccc34)C2CC(C)C)n1 (stereo not given)
activity change, negative = inhibition (at 50 µM (top of the series)): inactive

c1cc(-c2nnc(-c3ccncc3)o2)ccn1
activity change, negative = inhibition (at 50 µM (top of the series)): inactive

O=C(Oc1c(CN2CCOCC2)cc(Cl)c2cccnc12)c1ccc(F)cc1
activity change, negative = inhibition (at 50 µM (top of the series)): inactive

O=C(CCCn1c(=S)[nH]c2cc3c(cc2c1=O)OCO3)N1CCN(c2ccc(Cl)cc2)CC1
activity change, negative = inhibition (at 50 µM (top of the series)): inactive

CN(Cc1nccn1C)C(=O)c1cc(COc2ccc3ncccc3c2)on1
activity change, negative = inhibition (at 50 µM (top of the series)): inactive

COc1ccc(N2CCN(C(=O)c3cccc4nc(C)oc34)CC2)cc1
activity change, negative = inhibition (at 16 µM (top of the series)): inactive

CC(C)=Cc1oc2ccc([N+](=O)[O-])cc2c1N1CCOCC1
activity change, negative = inhibition (at 50 µM (top of the series)): inactive

COCCOC(=O)c1c(C)oc2ccc(OS(C)(=O)=O)cc12
activity change, negative = inhibition (at 50 µM (top of the series)): inactive

COn1c(SCc2ccccc2)nc2ccccc2c1=O
activity change, negative = inhibition (at 50 µM (top of the series)): inactive

COc1ccc(/C=C2\N=C(c3ccc(C)cc3)OC2=O)cc1
activity change, negative = inhibition (at 50 µM (top of the series)): inactive

CS(=O)(=O)N(CC(=O)N1CCOCC1)c1cccc(F)c1
activity change, negative = inhibition (at 50 µM (top of the series)): inactive

COc1ccc2ccccc2c1CN(C)Cc1ccccc1
activity change, negative = inhibition (at 50 µM (top of the series)): inactive

COCCN(C(=S)Nc1ccccc1OC)C1CCN(C(C)C)CC1
activity change, negative = inhibition (at 50 µM (top of the series)): inactive

Cc1cc(C)c(OCC(=O)OC(C)C(=O)NC2CC2)c(C)c1 (stereo not given)
activity change, negative = inhibition (at 50 µM (top of the series)): inactive

COc1ccc(Oc2nc3c(c(=O)n(C)c(=O)n3C)n2C)cc1
activity change, negative = inhibition (at 50 µM (top of the series)): inactive

CC(C)CN1CCN(Cc2cccc3c2OCO3)CC1CCO (stereo not given)
activity change, negative = inhibition (at 50 µM (top of the series)): inactive

CC(CCCC(C)(C)O)NC(=O)c1ccc(OC2CCN(C(=O)C3CC3)CC2)cc1 (stereo not given)
activity change, negative = inhibition (at 50 µM (top of the series)): inactive

CC(=O)Nc1cccc(NC(=O)CSc2nnc(NC(=O)c3ccco3)s2)c1
activity change, negative = inhibition (at 50 µM (top of the series)): inactive

O=C(COC(=O)c1cccc(O)c1)NC(=O)Cc1ccccc1
activity change, negative = inhibition (at 50 µM (top of the series)): inactive

COc1ccc(Nc2cccccc2=O)cc1
activity change, negative = inhibition (at 50 µM (top of the series)): inactive

COc1ccc(/C=N/N2CCN(c3ccccc3OC)CC2)cc1Br
activity change, negative = inhibition (at 50 µM (top of the series)): inactive

Cc1ccc(C)c(N(CC(=O)NC(C)(C)C)C(=O)CCC(=O)Nc2nccs2)c1
activity change, negative = inhibition (at 50 µM (top of the series)): inactive

Cc1cccc(Nc2nc(-c3ccc(F)cc3)cs2)n1
activity change, negative = inhibition (at 50 µM (top of the series)): inactive
